# Measurements reported in patent US7555415B2, “Methods for the design of estrogen receptor ligands” (Wyeth, priority 2005, dated 2009).
# B1: human estrogen receptor alpha ligand binding domain (ERalpha-LBD), carboxymethylated (receptor)
# chain: SKKNSLALSLTADQMVSALLDAEPPILYSEYDPTRPFSEASMMGLLTNLADRELVHMINWAKRVPGFVDLTLHDQVHLLECAWLEILMIGLVWRSMEHPVKLLFAPNLLLDRNQGKCVEGMVEIFDMLLATSSRFRMMNLQGEEFVCLKSIILLNSGVYTFLSSTLKSLEEKDHIHRVLDKITDTLIHLMAKAGLTLQQQHQRLAQLLLILSHIRHMSNKGMEHLYSMKCKNVVPLYDLLLEMLDAHRLHAPTS
# modifications: carboxymethylated with 5 mM iodoacetic acid while bound to the estradiol-affinity column; modified residues not stated
# notes: also called human ERalpha-LBD; ERalpha-LBD (301-554)
# Columns and labels:
# [1] = tested on: Adjuvant Induced Arthritis (AIA); test: Adjuvant-induced arthritis: histological scoring of cartilage changes (Mankin score) in tarsal joints; format: in vivo, Lewis rats; conditions: for Cartilage Cells (0-3) / Cartilage Structure (0-6) / Saffranin-O/Fast Green Staining (0-4) / Total Mankin Score (0-14): means ± SD
# Procedure: (§1) Forty-two male, 8-10 weeks old, Lewis rats were housed according to standard facility operating procedures. They received a standard regimen of food and water ad libitum. Each animal was identified by a cage card indicating the project group and animal number. Each rat number was marked by indelible ink marker on the tail. Freund's Adjuvant-Complete (Sigma Immuno Chemicals, St. Louis, Mo.) was used to induce arthritis. Each mL contained 1 mg Mycobacterium tuberculosis heat killed and dried, 0.85 mL mineral oil and 0.15 mL mannide monooleate (Lot No. 084H8800).
# (§2) The rats were injected intradermally with 0.1 mL of Freund's Adjuvant-Complete at the base of the tail. The animals were randomized to […], each group containing six rats. The groups received vehicle (2% Tween 80, 0.5% methylcellulose), or the Compound 2 compound at 1.0 mg/kg, 0.3 mg/kg, or 0.1 mg/kg orally each day. The rats began treatment on Day 8 after adjuvant injection.
# (§3) At the end of the study the rats were euthanized with CO2, hindlimbs were removed at necropsy and fixed in 10% buffered formalin, and the tarsal joints were decalcified and embedded in paraffin. Histologic sections were stained with Hemotoxylin and Eosin or Saffranin O-Fast Green stain.
# (§4) Slides were coded so that the examiner was blind to the treatment groups. Synovial tissue from tarsal joints were evaluated based on synovial hyperplasia, inflammatory cell infiltration, and pannus formation (see Table 4). Articular cartilage and bone was evaluated using Mankin's histological grading system. Biochemical and metabolic abnormalities in articular cartilage was assessed as from osteoarthritic human hip (see J. Bone Joint Surg (AM) 53A:152-153) (Table 5).
# [2] = tested on: Adjuvant Induced Arthritis (AIA); test: Adjuvant-induced arthritis: histological scoring of synovitis in tarsal joints; format: in vivo, Lewis rats; conditions: for Fibroplasia (0-3) / Inflammatory Cells (0-3) / Pannus (0-2) / Synovial Structure (0-3) / Total Synovitis Score (0-10): means ± SD
# Procedure: Rats were injected with Complete Freund's Adjuvant (CFA), and synovitis in the tarsal joints was monitored.
# as §1, §2, §3, §4
# [3] = tested on: Adjuvant Induced Arthritis (AIA); test: Adjuvant Induced Arthritis: daily arthritis severity / paw swelling score; format: in vivo, Lewis rats
# [4] = tested on: Collagen Induced Arthritis; test: Collagen induced arthritis model (anti-type II collagen mAbs plus LPS): hind paw edema; format: in vivo; conditions: BALB/c mice, 2.5 mg/kg orally once daily, over the course of the experiment
# Procedure: Compound 2 was evaluated in BALB/c mice, 6-8 weeks of age, in which arthritis was induced by monoclonal antibodies raised against type II collagen, plus lipopolysaccharide (LPS). The animals were administered intravenously with a combination of four different mAbs totaling 4 mg/mouse on day 0, and followed by intravenous administration of […] of LPS 72 hours later (day 3). From day 3, one hour after LPS application, tested compounds were given orally once daily for 15 days. For each animal, an increase in volume of both hind paws was measured using a plethysmometer with water cell (12 mm diameter) on days 0, 5, 7, 10, 14 and 17. Percent inhibition of increase in volume was calculated. Reduction of edema in the hind paws by 30% or more was considered significant.
# [5] = biological target: the molecule itself; test: X-ray crystallography, co-crystals with Compound 1 or Compound 2, two LBD molecules per asymmetric unit
# [6] = Compound 2, 0.1 mg/kg orally for 2 weeks from day 8 after CFA
# [7] = Compound 2, 0.3 mg/kg orally for 2 weeks from day 8 after CFA
# [8] = Compound 2, 1 mg/kg orally for 2 weeks from day 8 after CFA
# [9] = all concentrations tested (down to 0.1 mg/kg)
molecule,measurement,setting,value
"C[C@@H]1c2cc(F)ccc2-c2ccccc2N1S(=O)(=O)c1ccc(O)cc1 [Compound 2, 4-[(8-Fluoro-6-methylphenanthridin-5(6H)-yl)sulfonyl]phenol]",Tidemark Integrity (0-1),[1]; [6],0
same,Cartilage Cells (0-3),[1]; [6],1.92 ± 0.21
same,Cartilage Structure (0-6),[1]; [6],2.33 ± 0.68
same,Saffranin-O/Fast Green Staining (0-4),[1]; [6],2.42 ± 0.67
same,Total Mankin Score (0-14),[1]; [6],6.83 ± 1.25
same,Tidemark Integrity (0-1),[1]; [7],0
same,Cartilage Cells (0-3),[1]; [7],1.50 ± 0.32
same,Cartilage Structure (0-6),[1]; [7],1.75 ± 0.42
same,Saffranin-O/Fast Green Staining (0-4),[1]; [7],2.17 ± 0.26
same,Total Mankin Score (0-14),[1]; [7],5.42 ± 0.74*t
same,Tidemark Integrity (0-1),[1]; [8],0
same,Cartilage Cells (0-3),[1]; [8],1.17 ± 0.26*t
same,Cartilage Structure (0-6),[1]; [8],1.25 ± 0.27
same,Saffranin-O/Fast Green Staining (0-4),[1]; [8],2.17 ± 0.26
same,Total Mankin Score (0-14),[1]; [8],4.58 ± 0.74*t
same,Overall cartilage score,[1]; [9],significantly improved
same,Fibroplasia (0-3),[2]; [6],1.75 ± 0.42
same,Inflammatory Cells (0-3),[2]; [6],1.83 ± 0.52
same,Pannus (0-2),[2]; [6],1.50 ± 0.84
same,Synovial Structure (0-3),[2]; [6],2.33 ± 0.75
same,Total Synovitis Score (0-10),[2]; [6],7.42 ± 2.25
same,Fibroplasia (0-3),[2]; [7],1.67 ± 0.26*t
same,Inflammatory Cells (0-3),[2]; [7],1.25 ± 0.27
same,Pannus (0-2),[2]; [7],0.50 ± 0.84
same,Synovial Structure (0-3),[2]; [7],1.58 ± 0.38
same,Total Synovitis Score (0-10),[2]; [7],5.00 ± 1.30*#t
same,Fibroplasia (0-3),[2]; [8],1.33 ± 0.41*t
same,Inflammatory Cells (0-3),[2]; [8],1.17 ± 0.26
same,Pannus (0-2),[2]; [8],0.25 ± 0.42
same,Synovial Structure (0-3),[2]; [8],1.42 ± 0.38
same,Total Synovitis Score (0-10),[2]; [8],4.17 ± 1.21*#t
same,Overall synovitis score,[2]; [9],significantly improved
same,Paw swelling score (maximal score per day 12),"[3]; 0.3 mg/kg (first column so headed, c3) orally each day from Day 8, Day 8",11.5
same,Paw swelling score (maximal score per day 12),"[3]; 0.3 mg/kg (first column so headed, c3) orally each day from Day 8, Day 9",9.8
same,Paw swelling score (maximal score per day 12),"[3]; 0.3 mg/kg (first column so headed, c3) orally each day from Day 8, Day 10",7.3
same,Paw swelling score (maximal score per day 12),"[3]; 0.3 mg/kg (first column so headed, c3) orally each day from Day 8, Day 11",7
same,Paw swelling score (maximal score per day 12),"[3]; 0.3 mg/kg (first column so headed, c3) orally each day from Day 8, Day 12",6.7
same,Paw swelling score (maximal score per day 12),"[3]; 0.3 mg/kg (first column so headed, c3) orally each day from Day 8, Day 13",3.7
same,Paw swelling score (maximal score per day 12),"[3]; 0.3 mg/kg (first column so headed, c3) orally each day from Day 8, Day 14",3
same,Paw swelling score (maximal score per day 12),"[3]; 0.3 mg/kg (first column so headed, c3) orally each day from Day 8, Day 15",3.7
same,Paw swelling score (maximal score per day 12),"[3]; 0.3 mg/kg (first column so headed, c3) orally each day from Day 8, Day 16",2.3
same,Paw swelling score (maximal score per day 12),"[3]; 0.3 mg/kg (first column so headed, c3) orally each day from Day 8, Day 17",2.3
same,Paw swelling score (maximal score per day 12),"[3]; 0.3 mg/kg (first column so headed, c3) orally each day from Day 8, Day 18",2.3
same,Paw swelling score (maximal score per day 12),"[3]; 0.3 mg/kg (first column so headed, c3) orally each day from Day 8, Day 19",2
same,Paw swelling score (maximal score per day 12),"[3]; 0.3 mg/kg (first column so headed, c3) orally each day from Day 8, Day 20",2
same,Paw swelling score (maximal score per day 12),"[3]; 0.3 mg/kg (first column so headed, c3) orally each day from Day 8, Day 21",1.7
same,Paw swelling score (maximal score per day 12),"[3]; 0.3 mg/kg (first column so headed, c3) orally each day from Day 8, Day 22",1.7
same,Paw swelling score (maximal score per day 12),"[3]; 0.3 mg/kg (first column so headed, c3) orally each day from Day 8, Day 23",1
same,Paw swelling score (maximal score per day 12),"[3]; 0.3 mg/kg (first column so headed, c3) orally each day from Day 8, Day 24",1.3
same,Paw swelling score (maximal score per day 12),"[3]; 0.3 mg/kg (second column so headed, c4) orally each day from Day 8, Day 8",11.3
same,Paw swelling score (maximal score per day 12),"[3]; 0.3 mg/kg (second column so headed, c4) orally each day from Day 8, Day 9",10.7
same,Paw swelling score (maximal score per day 12),"[3]; 0.3 mg/kg (second column so headed, c4) orally each day from Day 8, Day 10",9.3
same,Paw swelling score (maximal score per day 12),"[3]; 0.3 mg/kg (second column so headed, c4) orally each day from Day 8, Day 11",9.7
same,Paw swelling score (maximal score per day 12),"[3]; 0.3 mg/kg (second column so headed, c4) orally each day from Day 8, Day 12",10
same,Paw swelling score (maximal score per day 12),"[3]; 0.3 mg/kg (second column so headed, c4) orally each day from Day 8, Day 13",4.2
same,Paw swelling score (maximal score per day 12),"[3]; 0.3 mg/kg (second column so headed, c4) orally each day from Day 8, Day 14",3.5
same,Paw swelling score (maximal score per day 12),"[3]; 0.3 mg/kg (second column so headed, c4) orally each day from Day 8, Day 15",3.5
same,Paw swelling score (maximal score per day 12),"[3]; 0.3 mg/kg (second column so headed, c4) orally each day from Day 8, Day 16",3.3
same,Paw swelling score (maximal score per day 12),"[3]; 0.3 mg/kg (second column so headed, c4) orally each day from Day 8, Day 17",3.3
same,Paw swelling score (maximal score per day 12),"[3]; 0.3 mg/kg (second column so headed, c4) orally each day from Day 8, Day 18",3.3
same,Paw swelling score (maximal score per day 12),"[3]; 0.3 mg/kg (second column so headed, c4) orally each day from Day 8, Day 19",3
same,Paw swelling score (maximal score per day 12),"[3]; 0.3 mg/kg (second column so headed, c4) orally each day from Day 8, Day 20",2.8
same,Paw swelling score (maximal score per day 12),"[3]; 0.3 mg/kg (second column so headed, c4) orally each day from Day 8, Day 21",2.5
same,Paw swelling score (maximal score per day 12),"[3]; 0.3 mg/kg (second column so headed, c4) orally each day from Day 8, Day 22",2.5
same,Paw swelling score (maximal score per day 12),"[3]; 0.3 mg/kg (second column so headed, c4) orally each day from Day 8, Day 23",1.2
same,Paw swelling score (maximal score per day 12),"[3]; 0.3 mg/kg (second column so headed, c4) orally each day from Day 8, Day 24",1.3
same,Paw swelling score (maximal score per day 12),"[3]; 1 mg/kg orally each day from Day 8, Day 8",11.3
same,Paw swelling score (maximal score per day 12),"[3]; 1 mg/kg orally each day from Day 8, Day 9",8.8
same,Paw swelling score (maximal score per day 12),"[3]; 1 mg/kg orally each day from Day 8, Day 10",7
same,Paw swelling score (maximal score per day 12),"[3]; 1 mg/kg orally each day from Day 8, Day 11",6
same,Paw swelling score (maximal score per day 12),"[3]; 1 mg/kg orally each day from Day 8, Day 12",5
same,Paw swelling score (maximal score per day 12),"[3]; 1 mg/kg orally each day from Day 8, Day 13",1.7
same,Paw swelling score (maximal score per day 12),"[3]; 1 mg/kg orally each day from Day 8, Day 14",1.3
same,Paw swelling score (maximal score per day 12),"[3]; 1 mg/kg orally each day from Day 8, Day 15",1.3
same,Paw swelling score (maximal score per day 12),"[3]; 1 mg/kg orally each day from Day 8, Day 16",1.2
same,Paw swelling score (maximal score per day 12),"[3]; 1 mg/kg orally each day from Day 8, Day 17",1.2
same,Paw swelling score (maximal score per day 12),"[3]; 1 mg/kg orally each day from Day 8, Day 18",1.2
same,Paw swelling score (maximal score per day 12),"[3]; 1 mg/kg orally each day from Day 8, Day 19",1.2
same,Paw swelling score (maximal score per day 12),"[3]; 1 mg/kg orally each day from Day 8, Day 20",1.2
same,Paw swelling score (maximal score per day 12),"[3]; 1 mg/kg orally each day from Day 8, Day 21",1.2
same,Paw swelling score (maximal score per day 12),"[3]; 1 mg/kg orally each day from Day 8, Day 22",1.2
same,Paw swelling score (maximal score per day 12),"[3]; 1 mg/kg orally each day from Day 8, Day 23",1
same,Paw swelling score (maximal score per day 12),"[3]; 1 mg/kg orally each day from Day 8, Day 24",0.8
same,Paw swelling and redness (joint scores),"[3]; following treatment, there appeared to be a dose response",Decreases
same,Inhibition of paw edema,[4],> 30%
B1,binding result,[5],binds
